Results published in paper PMC11876601 (Molecular Systems Biology, 2025).
Like-named read-outs stand apart in the source and are kept apart here.

Legend:
[1] = tested on: HPDE (immortalized pancreatic duct cell line); test: Drug combination viability screen (ATPlite, 72 h); format: cell-based, human; settings: single agent, HPDE;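 also: area under vehicle-normalized viability curve scaled 0 to 100 percent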
Experimental: (§1) Cell viability was assessed by measuring ATP levels to indicate metabolic activity.
(§2) Afterward, small amounts were transferred to 384-well intermediate plates (Greiner Bio-One GmbH, Germany). […] For drug combination screening, 1000 to 5000 cells were seeded into 384-well plates (CulturPlate™, Perkin Elmer, MA, USA) using a Multidrop™ Combi Reagent Dispenser (Thermo Scientific, MA, USA) in 50 µl medium per well 24 h prior to drug treatment (seeding densities see Appendix Table S1). […] The final DMSO concentration in each well was 0.2%. […] Eight wells per plate without library drug served as negative controls, and sixteen wells per plate containing 5 µM Staurosporine served as positive controls. Control plates not containing any drug were used to correct for incubation effects, and data quality was assessed by calculation of Z-prime of positive and negative controls according to1 Z-prime=1−3SDpos+3SDneg/[…] where SD is the standard deviation. […] Dose–response curves from the experimental and hypothetical data were compared, and shifts in AUC were used to describe combination effects (AUC∆ = AUChypothetical − AUCexperimental). […] Only combinations with R^2 > 0.8 in both conditions were considered in the synergy analysis.

AsPC-1 [2] = test: cells; set-up: ATPlite luminescence viability of PDAC cell lines, 11-dose single-agent curves, 4-parameter fit; settings: Homo sapiens, ASPC1, 72 h, read-out: EC50 [nM]
In short: (§3)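 cells (1000 to 5000 per well) seeded 24 h before drug addition in a combination screen at 0.2% final DMSO. Controls were drug-free wells (negative) and 5 µM staurosporine (positive).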

BxPC-3 [3] = test: cells; set-up: ATPlite luminescence viability of PDAC cell lines, 11-dose single-agent curves, 4-parameter fit; settings: Homo sapiens, BXPC-3, 72 h, read-out: EC50 [nM]
In short: as §3

Capan-1 [4] = test: cells; set-up: ATPlite luminescence viability of PDAC cell lines, 11-dose single-agent curves, 4-parameter fit; settings: Homo sapiens, CAPAN-1, 72 h, read-out: EC50 [nM]
In short: as §3

Colo-357 [5] = test: cells; set-up: ATPlite luminescence viability of PDAC cell lines, 11-dose single-agent curves, 4-parameter fit; settings: Homo sapiens, COLO357, 72 h, read-out: EC50 [nM]
In short: as §3

Dan-G [6] = test: cells; set-up: ATPlite luminescence viability of PDAC cell lines, 11-dose single-agent curves, 4-parameter fit; settings: 72 h, read-out: EC50 [nM]
In short: as §3

FAMPAC [7] = test: cells; set-up: ATPlite luminescence viability of PDAC cell lines, 11-dose single-agent curves, 4-parameter fit; settings: 72 h, read-out: EC50 [nM]
In short: as §3

HPDE [8] = test: cells; set-up: ATPlite luminescence viability of PDAC cell lines, 11-dose single-agent curves, 4-parameter fit; settings: HPDE, 72 h, read-out: EC50 [nM]
In short: as §3

HuP-T4 [9] = test: cells; set-up: ATPlite luminescence viability of PDAC cell lines, 11-dose single-agent curves, 4-parameter fit; settings: Homo sapiens, HuP-T4, 72 h, read-out: EC50 [nM]
In short: as §3

MiaPaCa-2 [10] = test: cells; set-up: ATPlite luminescence viability of PDAC cell lines, 11-dose single-agent curves, 4-parameter fit; settings: Homo sapiens, MIA PaCa-2, 72 h, read-out: EC50 [nM]
In short: as §3

PANC-1 [11] = test: cells; set-up: ATPlite luminescence viability of PDAC cell lines, 11-dose single-agent curves, 4-parameter fit; settings: Homo sapiens, PANC-1, 72 h, read-out: EC50 [nM]
In short: as §3

PSN-1 [12] = test: cells; set-up: ATPlite luminescence viability of PDAC cell lines, 11-dose single-agent curves, 4-parameter fit; settings: Homo sapiens, PSN1, 72 h, read-out: EC50 [nM]
In short: as §3

PaTu-8988-T [13] = test: cells; set-up: ATPlite luminescence viability of PDAC cell lines, 11-dose single-agent curves, 4-parameter fit; settings: Homo sapiens, PaTu 8988t, 72 h, read-out: EC50 [nM]
In short: as §3

Suit2-07 [14] = test: cells; set-up: ATPlite luminescence viability of PDAC cell lines, 11-dose single-agent curves, 4-parameter fit; settings: 72 h, read-out: EC50 [nM]
In short: as §3

13 PDAC cell lines = test: Phenotypic drug combination viability screen (ATPlite, 72 h), cell line panel; format: cell-based, human; settings: for median AUC across all cell lines: single agent, 72 h
Experimental: as §1, §2

AsPC-1 [15] = test: cells; set-up: Viability of PDAC cell lines, ATPlite luminescence, 11-dose single-agent curve fit; settings: Homo sapiens, ASPC1, 72 h, read-out: EC50 [nM]
In short: (§4)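 cells (1000 to 5000 per well) seeded 24 h before drug addition in a screen at 0.2% final DMSO. Controls were drug-free wells (negative) and 5 µM staurosporine (positive).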

BxPC-3 [16] = test: cells; set-up: Viability of PDAC cell lines, ATPlite luminescence, 11-dose single-agent curve fit; settings: Homo sapiens, BXPC-3, 72 h, read-out: EC50 [nM]
In short: as §4

Capan-1 [17] = test: cells; set-up: Viability of PDAC cell lines, ATPlite luminescence, 11-dose single-agent curve fit; settings: Homo sapiens, CAPAN-1, 72 h, read-out: EC50 [nM]
In short: as §4

Colo-357 [18] = test: cells; set-up: Viability of PDAC cell lines, ATPlite luminescence, 11-dose single-agent curve fit; settings: Homo sapiens, COLO357, 72 h, read-out: EC50 [nM]
In short: as §4

Dan-G [19] = test: cells; set-up: Viability of PDAC cell lines, ATPlite luminescence, 11-dose single-agent curve fit; settings: 72 h, read-out: EC50 [nM]
In short: as §4

FAMPAC [20] = test: cells; set-up: Viability of PDAC cell lines, ATPlite luminescence, 11-dose single-agent curve fit; settings: 72 h, read-out: EC50 [nM]
In short: as §4

HPDE [21] = test: cells; set-up: Viability of PDAC cell lines, ATPlite luminescence, 11-dose single-agent curve fit; settings: HPDE, 72 h, read-out: EC50 [nM]
In short: as §4

HuP-T4 [22] = test: cells; set-up: Viability of PDAC cell lines, ATPlite luminescence, 11-dose single-agent curve fit; settings: Homo sapiens, HuP-T4, 72 h, read-out: EC50 [nM]
In short: as §4

MiaPaCa-2 [23] = test: cells; set-up: Viability of PDAC cell lines, ATPlite luminescence, 11-dose single-agent curve fit; settings: Homo sapiens, MIA PaCa-2, 72 h, read-out: EC50 [nM]
In short: as §4

PANC-1 [24] = test: cells; set-up: Viability of PDAC cell lines, ATPlite luminescence, 11-dose single-agent curve fit; settings: Homo sapiens, PANC-1, 72 h, read-out: EC50 [nM]
In short: as §4

PSN-1 [25] = test: cells; set-up: Viability of PDAC cell lines, ATPlite luminescence, 11-dose single-agent curve fit; settings: Homo sapiens, PSN1, 72 h, read-out: EC50 [nM]
In short: as §4

PaTu-8988-T [26] = test: cells; set-up: Viability of PDAC cell lines, ATPlite luminescence, 11-dose single-agent curve fit; settings: Homo sapiens, PaTu 8988t, 72 h, read-out: EC50 [nM]
In short: as §4

Suit2-07 [27] = test: cells; set-up: Viability of PDAC cell lines, ATPlite luminescence, 11-dose single-agent curve fit; settings: 72 h, read-out: EC50 [nM]
In short: as §4

| SMILES | AUC [1] | EC50 (AsPC-1 [2]) | EC50 (BxPC-3 [3]) | EC50 (Capan-1 [4]) | EC50 (Colo-357 [5]) | EC50 (Dan-G [6]) | EC50 (FAMPAC [7]) | EC50 (HPDE [8]) | EC50 (HuP-T4 [9]) | EC50 (MiaPaCa-2 [10]) | EC50 (PANC-1 [11]) | EC50 (PSN-1 [12]) | EC50 (PaTu-8988-T [13]) | EC50 (Suit2-07 [14]) | EC50 (PANC-1 [24]) | also measured |
| --- | --- | --- | --- | --- | --- | --- | --- | --- | --- | --- | --- | --- | --- | --- | --- | --- |
| CN(C)C/C=C/C(=O)Nc1cc2c(Nc3ccc(F)c(Cl)c3)ncnc2cc1O[C@H]1CCOC1 [Afatinib] | < 60% | > 10000 nM | 6420 nM | 4990 nM | 1.6 nM | 1.59 nM | > 10000 nM | 22.8 nM | > 10000 nM | 1700 nM | 6660 nM | > 10000 nM | 2740 nM | 9950 nM | – | – |
| CO[C@H]1C[C@@H]2CC[C@@H](C)[C@@](O)(O2)C(=O)C(=O)N2CCCC[C@H]2C(=O)O[C@H]([C@H](C)C[C@@H]2CC[C@@H](OC(=O)C(C)(CO)CO)[C@H](OC)C2)CC(=O)[C@H](C)/C=C(\C)[C@@H](O)[C@@H](OC)C(=O)[C@H](C)C[C@H](C)/C=C/C=C/C=C/1C [Temsirolimus] | – | – | – | – | – | – | – | – | – | – | – | – | – | – | 29.2 nM | median AUC across all cell lines (13 PDAC cell lines): > 80%; EC50 (AsPC-1 [15]): 1.54 nM; EC50 (BxPC-3 [16]): 0.06 nM; EC50 (Capan-1 [17]): 0.08 nM; EC50 (Colo-357 [18]): 4160 nM; EC50 (Dan-G [19]): 1.3 nM; EC50 (FAMPAC [20]): 0.13 nM; EC50 (HPDE [21]): 0.19 nM; EC50 (HuP-T4 [22]): 30.2 nM; EC50 (MiaPaCa-2 [23]): 2.17 nM; EC50 (PSN-1 [25]): 0.57 nM; EC50 (PaTu-8988-T [26]): 0.57 nM; EC50 (Suit2-07 [27]): 0.35 nM |
| O=C(/C=C\n1cnc(-c2cc(C(F)(F)F)cc(C(F)(F)F)c2)n1)NNc1cnccn1 [Selinexor] | < 60% | 229 nM | 114 nM | 226 nM | 190 nM | 113 nM | 97 nM | 37.7 nM | 1200 nM | 190 nM | – | 64.2 nM | 116 nM | 61 nM | 182 nM | – |
| CCOc1cc2ncc(C#N)c(Nc3ccc(OCc4ccccn4)c(Cl)c3)c2cc1NC(=O)/C=C/CN(C)C [Neratinib] | < 60% | 816 nM | 1210 nM | 6740 nM | 1280 nM | 7080 nM | 1320 nM | 60.8 nM | > 10000 nM | 863 nM | – | > 10000 nM | 835 nM | 1400 nM | 8210 nM | – |
| COc1cc2ncnc(Nc3ccc(F)c(Cl)c3)c2cc1NC(=O)/C=C/CN1CCCCC1 [Dacomitinib] | < 60% | > 10000 nM | > 10000 nM | 10300 nM | 909 nM | 2440 nM | 3270 nM | 46.5 nM | > 10000 nM | 2210 nM | 3920 nM | 3850 nM | 2200 nM | 1730 nM | – | – |
| C1=N/C2=N/c3ccc(OCCN4CCCC4)c(c3)COC/C=C/COCc3cccc(c3)C(=C1)N2 [Pacritinib] | – | 529 nM | 1190 nM | 2210 nM | 1610 nM | 2100 nM | 1280 nM | 1340 nM | 2500 nM | 475 nM | 1780 nM | 971 nM | 477 nM | 654 nM | – | – |
| C[C@@H]1CN(C(=O)c2ccc(NC(=O)c3cc(O[C@H](C)c4c(Cl)ccc(F)c4Cl)c(N)nn3)cc2)C[C@H](C)N1 [Ensartinib] | – | 5190 nM | 7520 nM | 1990 nM | 2870 nM | 2960 nM | 3600 nM | 4130 nM | 2630 nM | 791 nM | > 10000 nM | 4440 nM | > 10000 nM | 2000 nM | – | – |
| Cc1cnc(Nc2ccc(OCCN3CCCC3)cc2)nc1Nc1cccc(S(=O)(=O)NC(C)(C)C)c1 [Fedratinib] | – | 622 nM | 659 nM | 2030 nM | 1070 nM | 1630 nM | 1010 nM | 1280 nM | 8310 nM | 400 nM | 2200 nM | 827 nM | 274 nM | 320 nM | – | – |
| CC(=O)c1cc2c(o1)C(=O)c1ccccc1C2=O [Napabucasin] | – | 644 nM | 493 nM | 6090 nM | 6740 nM | 5300 nM | 322 nM | 390 nM | 1650 nM | 176 nM | 1840 nM | 588 nM | 220 nM | > 10000 nM | – | – |
| CC(=O)Nc1cccc(-n2c(=O)n(C3CC3)c(=O)c3c(Nc4ccc(I)cc4F)n(C)c(=O)c(C)c32)c1 [Trametinib] | – | 3.02 nM | 13.1 nM | – | – | 1.4 nM | 9.21 nM | 7 nM | – | 3.92 nM | – | 5.34 nM | 7.98 nM | 8.92 nM | 45.6 nM | median AUC across all cell lines (13 PDAC cell lines): < 70%; EC50 (Capan-1 [17]): 88.1 nM; EC50 (Colo-357 [18]): 1160 nM; EC50 (HuP-T4 [22]): 8.2 nM |
| Cn1ncnc1[C@H]1c2n[nH]c(=O)c3cc(F)cc(c23)N[C@@H]1c1ccc(F)cc1 [Talazoparib] | – | – | – | 507 nM | 355 nM | 268 nM | 693 nM | – | – | 825 nM | – | 405 nM | – | 113 nM | 1590 nM | number of cell lines with synergy with GEM (13 PDAC cell lines; of 13 cell lines, Bliss model): two; EC50 (AsPC-1 [15]): 2650 nM; EC50 (BxPC-3 [16]): 2960 nM; EC50 (HPDE [21]): > 10000 nM; EC50 (HuP-T4 [22]): 6060 nM; EC50 (PaTu-8988-T [26]): > 10000 nM |
